Measured values published in ChEMBL document CHEMBL3785001, “New pentasubstituted pyrrole hybrid atorvastatin-quinoline derivatives with antiplasmodial activity” (Bioorg Med Chem Lett, 2016).

System: Plasmodium falciparum
Test: Potency index, ratio of primaquine IC50 to compound IC50 for chloroquine-resistant Plasmodium falciparum W2 infected in human red blood cells
Type: functional
Conditions: not given

For `CC(C)c1c(C(=O)Nc2ccccc2)c(-c2ccccc2)c(-c2ccc(F)cc2)n1CCCNc1ccnc2cc(Cl)ccc12`, which “Ratio IC50” value is on record?
The value was 5.

For `CC(C)c1c(C(=O)Nc2ccccc2)c(-c2ccccc2)c(-c2ccc(F)cc2)n1CCNc1ccnc2cc(Cl)ccc12`, which “Ratio IC50” value is on record?
The value was 5.

With `COc1cc(NC(C)CCCn2c(-c3ccc(F)cc3)c(-c3ccccc3)c(C(=O)Nc3ccccc3)c2C(C)C)c2ncccc2c1` (centres undefined) as the compound, how does the “Ratio IC50” value read?
Its value is 5.

Which “Ratio IC50” value does the source give for `CC(C)c1c(C(=O)Nc2ccccc2)c(-c2ccccc2)c(-c2ccc(F)cc2)n1CCCCNc1ccnc2cc(Cl)ccc12` here?
The value was 5.

System: not listed separately
Test: Cytotoxicity against African green monkey BGM cells assessed as cell viability after 24 hrs by neutral red assay
Type: cell-based
Conditions: chlorocebus aethiops, read-out: MLD50

For `CCCCn1c(-c2ccc(F)cc2)c(-c2ccccc2)c(C(=O)Nc2ccccc2)c1C(C)C`, which CC50 at 24 h is on record?
The CC50 at 24 h was greater than 2200 µM.

For `CC(C)c1c(C(=O)Nc2ccccc2)c(-c2ccccc2)c(-c2ccc(F)cc2)n1CCCNc1ccnc2cc(Cl)ccc12`, which CC50 at 24 h is on record?
The CC50 at 24 h was 136 µM.

Which CC50 at 24 h does the source give for `CC(C)c1c(C(=O)Nc2ccccc2)c(-c2ccccc2)c(-c2ccc(F)cc2)n1CCNc1ccnc2cc(Cl)ccc12` here?
Its CC50 at 24 h is greater than 1660 µM.

For `COc1cc(NC(C)CCCn2c(-c3ccc(F)cc3)c(-c3ccccc3)c(C(=O)Nc3ccccc3)c2C(C)C)c2ncccc2c1` (centres undefined), which CC50 at 24 h is on record?
The CC50 at 24 h was greater than 1560 µM.

For `CC(C)c1c(C(=O)Nc2ccccc2)c(-c2ccccc2)c(-c2ccc(F)cc2)n1CCCCNc1ccnc2cc(Cl)ccc12`, which CC50 at 24 h is on record?
Its CC50 at 24 h is 187 µM.

Which CC50 at 24 h does the source give for `COc1cc(NC(C)CCCN)c2ncccc2c1` (centres undefined) [PRIMAQUINE] here?
Its CC50 at 24 h is 452 µM.

System: not listed separately
Test: in vitro
Conditions: monkey

With `CCCCn1c(-c2ccc(F)cc2)c(-c2ccccc2)c(C(=O)Nc2ccccc2)c1C(C)C` as the compound, how does the selectivity ratio read?
The selectivity ratio was greater than 345.

For `CC(C)c1c(C(=O)Nc2ccccc2)c(-c2ccccc2)c(-c2ccc(F)cc2)n1CCCNc1ccnc2cc(Cl)ccc12`, which selectivity ratio is on record?
Its selectivity ratio is 210.

With `CC(C)c1c(C(=O)Nc2ccccc2)c(-c2ccccc2)c(-c2ccc(F)cc2)n1CCNc1ccnc2cc(Cl)ccc12` as the compound, how does the selectivity ratio read?
The selectivity ratio was greater than 1680.

With `COc1cc(NC(C)CCCn2c(-c3ccc(F)cc3)c(-c3ccccc3)c(C(=O)Nc3ccccc3)c2C(C)C)c2ncccc2c1` (centres undefined) as the compound, how does the selectivity ratio read?
The selectivity ratio was greater than 1110.

Which selectivity ratio does the source give for `CC(C)c1c(C(=O)Nc2ccccc2)c(-c2ccccc2)c(-c2ccc(F)cc2)n1CCCCNc1ccnc2cc(Cl)ccc12` here?
Its selectivity ratio is 468.

Which selectivity ratio does the source give for `COc1cc(NC(C)CCCN)c2ncccc2c1` (centres undefined) [PRIMAQUINE] here?
Its selectivity ratio is 239.

System: Plasmodium falciparum
Test: microbe, parasite or virus in culture
Conditions: W2, 48 h

Which IC50 does the source give for `CCCCn1c(-c2ccc(F)cc2)c(-c2ccccc2)c(C(=O)Nc2ccccc2)c1C(C)C` here?
The IC50 was 6.39 µM.

Which IC50 does the source give for `CC(C)c1c(C(=O)Nc2ccccc2)c(-c2ccccc2)c(-c2ccc(F)cc2)n1CCCNc1ccnc2cc(Cl)ccc12` here?
The IC50 was 0.65 µM.

Which IC50 does the source give for `CC(C)c1c(C(=O)Nc2ccccc2)c(-c2ccccc2)c(-c2ccc(F)cc2)n1CCNc1ccnc2cc(Cl)ccc12` here?
The IC50 was 0.99 µM.

Which IC50 does the source give for `COc1cc(NC(C)CCCn2c(-c3ccc(F)cc3)c(-c3ccccc3)c(C(=O)Nc3ccccc3)c2C(C)C)c2ncccc2c1` (centres undefined) here?
The IC50 was 1.41 µM.

Which IC50 does the source give for `CC(C)c1c(C(=O)Nc2ccccc2)c(-c2ccccc2)c(-c2ccc(F)cc2)n1CCCCNc1ccnc2cc(Cl)ccc12` here?
The IC50 was 0.4 µM.

For `CC(C)c1c(C(=O)Nc2ccccc2)c(-c2ccccc2)c(-c2ccc(F)cc2)n1CC[C@@H](O)C[C@@H](O)CC(=O)O` [ATORVASTATIN], which IC50 is on record?
Its IC50 is 10.3 µM.

Which IC50 does the source give for `COc1cc(NC(C)CCCN)c2ncccc2c1` (centres undefined) [PRIMAQUINE] here?
Its IC50 is 1.89 µM.

System: Plasmodium falciparum
Test: Antimalarial activity against chloroquine-sensitive Plasmodium falciparum NF54 infected in human erythrocytes incubated for 48 hrs by [3H]hypoxanthine incorporation assay
Type: functional, organism-based
Conditions: not given

For `C[C@@H]1CC[C@H]2[C@@H](C)C(c3cccn3C)O[C@@H]3O[C@@]4(C)CC[C@@H]1[C@]32OO4` (some centres undefined), which IC50 is on record?
Its IC50 is 0.0046 µM.
